Experimental data from patent US20260035384A1, “COMPOUND CONTAINING CYCLOHEXYL” (CHIA TAI TIANQING PHARMACEUTICAL GROUP CO., LTD., priority 2022, published 2026).
Where a chain is given by its changes, count along the chain named. Where two headings read alike, the source gives them in different places.

What was measured:
[1] = In vitro stability in liver microsome; type: in vitro ADME; details: human liver microsome 0.5 mg/mL, NADPH, 37° C.
Description: Liver microsome incubation samples (species: human, monkey, rat, and mouse) were prepared by mixing a PBS buffer (pH=7.4), a liver microsome solution (0.5 mg/mL), a test compound, and an NADPH+MgCl2 solution and incubated at 37° C. and 300 rpm for 1 h. Zero-hour samples were prepared by mixing a PBS buffer (pH=7.4), a liver microsome solution (0.5 mg/mL), and a test compound. An acetonitrile solution containing an internal standard was added to the samples, and supernatants were prepared by protein precipitation, diluted, and then assayed by LC/MS/MS.

AR in VCaP cells = target: T1, AR in VCaP cells (Homo sapiens, UniProt P10275); test: Assay on degradation activity for AR in VCaP cells (HTRF human androgen receptor detection kit); type: cell-based; details: 24 h incubation
T1 construct: Assay on Degradation Activity for AR in VCaP Cells; endogenous in cells; host or cells: VCaP cells
T1 sequence (P10275 1-920): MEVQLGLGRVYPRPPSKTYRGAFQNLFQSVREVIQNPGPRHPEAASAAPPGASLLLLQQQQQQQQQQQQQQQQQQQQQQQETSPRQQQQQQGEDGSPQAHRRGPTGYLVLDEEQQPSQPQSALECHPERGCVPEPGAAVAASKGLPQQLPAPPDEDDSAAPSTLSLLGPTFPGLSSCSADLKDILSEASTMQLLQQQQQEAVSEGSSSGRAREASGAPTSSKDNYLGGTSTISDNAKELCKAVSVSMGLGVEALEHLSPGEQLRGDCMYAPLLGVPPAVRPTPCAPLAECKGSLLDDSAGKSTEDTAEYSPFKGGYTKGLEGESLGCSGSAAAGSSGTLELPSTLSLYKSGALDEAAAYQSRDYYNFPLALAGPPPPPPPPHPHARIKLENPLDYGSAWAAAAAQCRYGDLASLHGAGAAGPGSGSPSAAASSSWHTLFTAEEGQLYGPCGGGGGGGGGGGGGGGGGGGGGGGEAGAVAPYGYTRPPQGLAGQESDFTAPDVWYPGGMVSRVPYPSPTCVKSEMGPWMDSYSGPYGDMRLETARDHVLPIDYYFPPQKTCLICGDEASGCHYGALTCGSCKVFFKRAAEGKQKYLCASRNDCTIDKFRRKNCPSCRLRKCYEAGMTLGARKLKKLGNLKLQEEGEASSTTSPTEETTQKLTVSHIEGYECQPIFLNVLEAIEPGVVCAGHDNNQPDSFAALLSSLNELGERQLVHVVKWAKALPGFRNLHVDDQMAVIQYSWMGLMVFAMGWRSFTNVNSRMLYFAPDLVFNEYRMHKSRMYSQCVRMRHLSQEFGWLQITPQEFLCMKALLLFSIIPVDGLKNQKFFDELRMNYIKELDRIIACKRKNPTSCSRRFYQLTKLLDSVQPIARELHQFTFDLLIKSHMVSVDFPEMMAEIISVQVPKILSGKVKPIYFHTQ
Description: (§1) The detection was carried out using the HTRF HUMAN ANDROGEN RECEPTOR DETECTION KIT (cisbio, 64ANDRPEG), 4× Supplemented Lysis buffer was prepared using the Blocking reagent stock solution (100×) and Lysis buffer stock solution (4×), and 1× Supplemented Lysis buffer was prepared using the 4× Supplemented Lysis buffer and ddH2O. Premixed antibody solutions were prepared using Detection buffer, Androgen Receptor Eu Cryptate antibody, and Androgen Receptor d2 antibody.
(§2) VCaP cells in a good growth state were taken, washed with PBS, digested with pancreatin, and added with 2% CSS—FBS phenol red-free DMEM complete medium to terminate the digestion. The cells were collected by using a centrifuge tube, adjusted to a cell density of 1×10^6 cells/mL, and seeded in a 96-well plate (100 µL/well). The cells were incubated overnight in a cell incubator. Compounds were added using a nanoliter pipettor such that the final concentrations of the compounds were 1000 nM-0.977 nM. Two duplicate wells were set for each concentration, and meanwhile, a control was set. After another 24 h of incubation in the cell incubator, the medium was pipetted out, the 1× Supplemented Lysis buffer was added at 40 μL/well to lyse the cells. After the cells were oscillated for 40 min at room temperature, 16 μL of the cell lysate was added to a 384-well plate, the Premixed antibody solutions were added at 4 μL/well, and the mixture was left to stand at 25° C. for 2 h. Fluorescence values were detected at 665 nm/620 nm using an Envision microplate reader, the four-parameter analysis was performed, the dose-response curves were fit, and DC50 (the concentration of the drug when the degradation rate reaches 50%) and Dmax (the maximum degradation rate) were calculated.

LNCaP cells = test: Assay on inhibitory activity for LNCaP cell proliferation (CCK-8); type: cell-based; details: Homo sapiens, 168 h incubation
Summary of the method: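 Cells seeded at 1×10^5 cells/mL in phenol red-free 1640 with 2% CSS-FBS, treated at final 10000 nM-0.61 nM in duplicate. After 168 h incubation, viability read with CCK-8.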

VCaP cells = test: Assay on inhibitory activity for VCaP cell proliferation (CCK-8); type: cell-based; details: Homo sapiens, 168 h incubation
Summary of the method: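 VCaP cells seeded at 1×10^5 cells/mL in phenol red-free DMEM with 5% charcoal-stripped FBS, treated in duplicate at 10000–0.61 nM final. After 168 h incubation, viability was read with CCK-8.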

Mouse pharmacokinetics = type: in vivo, ICR mice; details: for clearance / half-life / AUC / bioavailability / Cmax: ICR, mouse, plasma; for AUC: read-out: AUC; for bioavailability: Mouse i.g. 10 mpk vs i.v. 1 mpk; for Cmax: read-out: Cmax
Description: ICR mice weighing 18-22 g were randomized into groups of 9 after 3-5 days of acclimatization, and then intragastrically given the test compound solution at a dose of 10 mg/kg and intravenously injected with the test compound solution at a dose of 1 mg/kg.
Blood sampling time points for the intragastrical administration group were 15 min, 0.5 h, 1 h, 2 h, 3 h, 4 h, 6 h, 8 h, 10 h, and 24 h, and blood sampling time points for the intravenous injection administration group were […], 15 min, 0.5 h, 1 h, 2 h, 4 h, 6 h, 8 h, 10 h, and 24 h; blood was collected from the orbit to prepare plasma samples to be tested. 30 μL of each of the plasma samples to be tested and a standard curve sample were taken, and an acetonitrile solution containing an internal standard was added. Supernatants were obtained by protein precipitation, diluted, and then assayed by LC/MS/MS. Pharmacokinetic parameters were fitted using a non-compartmental model (see Table 6).

AR in LNCaP cells = target: T2, AR in LNCaP cells (Homo sapiens, UniProt P10275, T878A); test: Assay on degradation activity for AR in LNCaP cells (HTRF human androgen receptor detection kit); type: cell-based; details: 24 h incubation; for DC50: HTRF; for Dmax: maximum degradation rate
T2 construct: Assay on Degradation Activity for AR in LNCaP Cells; endogenous in cells; host or cells: LNCaP cells
T2 sequence (P10275 1-920 T878A): T1 sequence (P10275 1-920) with T878A
Description: as §1
as §2, with “LNCaP” for “VCaP”, “1640” for “DMEM”, “μL/well).” for “µL/well).”, “500 nM-0.488” for “1000 nM-0.977”

[2] = po, 10 mg/kg, Mouse i.g. 10 mpk

With `N#Cc1ccc(O[C@H]2CC[C@H](NC(=O)c3ccc(N4CCC(CN5Cc6ccc7c(C8CCC(=O)NC8=O)noc7c6C5)CC4)nn3)CC2)cc1Cl` (stereo partly drawn) [Compound 17] the “Human liver microsome Residuals at 60 min (%)” value [1] was greater than 85%, the DC50 (AR in VCaP cells) was no more than 1 nM and the IC50 (LNCaP cells) was less than 1000 nM. For the same compound, the IC50 (VCaP cells; VCaP, 168 h) was less than 1000 nM, the clearance (Mouse pharmacokinetics; iv, 1 mg/kg, Mouse i.v. 1 mpk) was 4.72 mL/min/kg and the half-life (Mouse pharmacokinetics; iv, 1 mg/kg, Mouse i.v. 1 mpk) was 7.28 h. It also gave an AUC (Mouse pharmacokinetics; iv, 1 mg/kg, Mouse i.v. 1 mpk) of 3160 ng·h/mL, a half-life (Mouse pharmacokinetics; [2]) of 6.82 h and a bioavailability (Mouse pharmacokinetics; po, 10 mg/kg) of 46%. For the same compound, the AUC (Mouse pharmacokinetics; [2]) was 14600 ng·h/mL and the Cmax (Mouse pharmacokinetics; [2]) was 1160 ng/mL.

With `N#Cc1ccc(O[C@H]2CC[C@H](NC(=O)c3ccc(N4CCC(CN5CCc6ccc7c(C8CCC(=O)NC8=O)noc7c6C5)CC4)nn3)CC2)cc1Cl` (stereo partly drawn) [Compound 18] the “Human liver microsome Residuals at 60 min (%)” value [1] was greater than 85%, the IC50 (LNCaP cells) was less than 1000 nM and the DC50 (AR in LNCaP cells) was no more than 20 nM. For the same compound, the Dmax (AR in LNCaP cells) was greater than 80%, the clearance (Mouse pharmacokinetics; iv, 1 mg/kg, Mouse i.v. 1 mpk) was 2.7 mL/min/kg and the AUC (Mouse pharmacokinetics; iv, 1 mg/kg, Mouse i.v. 1 mpk) was 5930 ng·h/mL. It also gave a half-life (Mouse pharmacokinetics; [2]) of 5.52 h, a bioavailability (Mouse pharmacokinetics; po, 10 mg/kg) of 31% and an AUC (Mouse pharmacokinetics; [2]) of 18400 ng·h/mL. It also gave a Cmax (Mouse pharmacokinetics; [2]) of 1200 ng/mL.

In the case of `N#Cc1ccc(O[C@H]2CC[C@H](NC(=O)c3ccc(N4CCN(CC5Cc6ccc7c(C8CCC(=O)NC8=O)noc7c6C5)CC4)nn3)CC2)cc1Cl` (stereo partly drawn) [Compound 26], the “Human liver microsome Residuals at 60 min (%)” value [1] is reported as greater than 85%, the DC50 (AR in VCaP cells) is reported as no more than 1 nM and the IC50 (LNCaP cells) is reported as less than 1000 nM. For the same compound, the IC50 (VCaP cells; VCaP, 168 h) was less than 100 nM, the clearance (Mouse pharmacokinetics; iv, 1 mg/kg, Mouse i.v. 1 mpk) was 2.78 mL/min/kg and the half-life (Mouse pharmacokinetics; iv, 1 mg/kg, Mouse i.v. 1 mpk) was 7.58 h. The AUC (Mouse pharmacokinetics; iv, 1 mg/kg, Mouse i.v. 1 mpk) was 5350 ng·h/mL, the bioavailability (Mouse pharmacokinetics; po, 10 mg/kg) was 24.8% and the AUC (Mouse pharmacokinetics; [2]) was 13200 ng·h/mL. For the same compound, the Cmax (Mouse pharmacokinetics; [2]) was 886 ng/mL and the “t1/2” value (Mouse pharmacokinetics; Mouse i.g. 10 mpk) was 11 h.

For `N#Cc1ccc(O[C@H]2CC[C@H](NC(=O)c3ccc(N4CCC5(CC4)CC(CN4Cc6ccc7c(C8CCC(=O)NC8=O)noc7c6C4)C5)nn3)CC2)cc1Cl.O=C(O)/C=C\C(=O)O` (stereo partly drawn) [Compound 34], the “Human liver microsome Residuals at 60 min (%)” value [1] was greater than 85%, the IC50 (LNCaP cells) was less than 1000 nM and the IC50 (VCaP cells) was less than 100 nM. For the same compound, the Dmax (AR in LNCaP cells) was greater than 80%.

With `N#Cc1ccc(O[C@H]2CC[C@H](NC(=O)c3ccc(C4CCN(CC5CN(c6cc7onc(C8CCC(=O)NC8=O)c7c7ccccc67)C5)CC4)nn3)CC2)cc1Cl` (stereo partly drawn) [Compound 47] the “Human liver microsome Residuals at 60 min (%)” value [1] was greater than 85%, the IC50 (VCaP cells) was less than 10 nM and the DC50 (AR in LNCaP cells) was no more than 20 nM. It also gave a Dmax (AR in LNCaP cells) greater than 80%.

For `N#Cc1ccc(O[C@H]2CC[C@H](NC(=O)c3ccc(N4CCC(N5CC(N6Cc7ccc8c(C9CCC(=O)NC9=O)noc8c7C6)C5)CC4)nn3)CC2)cc1Cl` (stereo partly drawn) [Compound 94], the “Human liver microsome Residuals at 60 min (%)” value [1] was greater than 85%, the DC50 (AR in VCaP cells) was no more than 1 nM and the IC50 (LNCaP cells) was less than 1000 nM. It also gave an IC50 (VCaP cells) of less than 100 nM.

With `N#Cc1ccc(O[C@H]2CC[C@H](NC(=O)c3cnc(N4CCC(CN5Cc6ccc7c(C8CCC(=O)NC8=O)noc7c6C5)CC4)nc3)CC2)cc1Cl` (stereo partly drawn) [Compound 119] the “Human liver microsome Residuals at 60 min (%)” value [1] was greater than 85%, the IC50 (LNCaP cells) was less than 1000 nM and the IC50 (VCaP cells; VCaP, 168 h) was less than 100 nM. It also gave a clearance (Mouse pharmacokinetics; iv, 1 mg/kg, Mouse i.v. 1 mpk) of 5.8 mL/min/kg, a half-life (Mouse pharmacokinetics; iv, 1 mg/kg, Mouse i.v. 1 mpk) of 11.5 h and an AUC (Mouse pharmacokinetics; iv, 1 mg/kg, Mouse i.v. 1 mpk) of 2720 ng·h/mL. The half-life (Mouse pharmacokinetics; [2]) was 8.6 h, the bioavailability (Mouse pharmacokinetics; po, 10 mg/kg) was 39% and the AUC (Mouse pharmacokinetics; [2]) was 10600 ng·h/mL. It also gave a Cmax (Mouse pharmacokinetics; [2]) of 559 ng/mL.
